Laboratory results as given in BigSolDB 2.1.

CC[C@H]1OC(=O)[C@H](C)[C@@H](O[C@H]2C[C@@](C)(OC)[C@@H](O)[C@H](C)O2)[C@H](C)[C@@H](O[C@@H]2O[C@H](C)C[C@H](N(C)C)[C@H]2O)[C@](C)(O)C[C@@H](C)C(=O)[C@H](C)[C@@H](O)[C@]1(C)O.O.O
solubility (mole fraction)
Conditions | 293.2 K | 298 K | 303.15 K | 308 K | 313.1 K | 318 K | 323 K
in acetone | 0.00914 | 0.0131 | 0.0217 | 0.0293 | 0.0433 | 0.0542 | 0.0804
in chloroform | 0.00391 | 0.0054 | 0.00875 | 0.0134 | 0.0216 | 0.0313 | 0.0473
in ethanol | 0.0148 | 0.0192 | 0.0254 | 0.0338 | 0.046 | 0.062 | 0.081
in isopropanol | 0.003 | 0.00401 | 0.00556 | 0.00754 | 0.00995 | 0.0143 | 0.0194
in methanol | 0.0116 | 0.0143 | 0.0179 | 0.0215 | 0.0253 | 0.0305 | 0.0373
in water | 5.4e-05 | 4.7e-05 | 4.2e-05 | 4e-05 | 3.8e-05 | 3.5e-05 | 3.4e-05
